Experiments:
Format in all cases: cell-based
[1] = test system: parental Ba/F3 cell line; assay: Growth inhibition (GI50) of the parental Ba/F3 cell line (not introduced with EGFR variants), Celltiter glo; conditions: Mus musculus, BaF3, 72 h, parental Ba/F3 cells
Protocol: (§1) The parental Ba/F3 cell line is a population of cells that are not introduced with EGFR variants. Specifically, 100 μl of a cell line expressing each variant was plated in a 96-well plate at a density of 100,000 cells/ml. 10-point, 4-fold serial dilutions of each compound were prepared, starting at 2 mM. After 4 h, 0.5 μl of the compound (0.5% DMSO) was added, followed by incubation at 37° C. and 5% CO2 for 72 h. After incubation, the number of viable cells was measured using a Celltiter glo assay kit (Promega) and the GI50 of the compound was determined. The term “GI50” refers to the molar concentration (μM) of the compound required for 50% growth inhibition of cells.

[2] = test system: Ba/F3 cells expressing EGFR-wt; assay: Growth inhibition (GI50) of Ba/F3 cells expressing EGFR-wt, Celltiter glo; conditions: Mus musculus, BaF3, 72 h
Protocol: (§2) In this experimental example, a determination was made as to whether the compounds prepared in Examples 1-283 have the ability to inhibit the growth of Ba/F3 cells expressing EGFR-wt, del19/T790M/C797S (EGFR-DTC), L858R/T790M/C797S (EGFR-LTC), del19/T790M (EGFR-DT), and L858R/T790M (EGFR-LT) variants.
as §1

[3] = test system: Ba/F3 cells expressing L858R/T790M/C797S (EGFR-LTC); assay: Growth inhibition (GI50) of Ba/F3 cells expressing L858R/T790M/C797S (EGFR-LTC), Celltiter glo; conditions: Mus musculus, BaF3, 72 h
Protocol: as §2, §1

[4] = test system: Ba/F3 cells expressing del19/T790M/C797S (EGFR-DTC); assay: Growth inhibition (GI50) of Ba/F3 cells expressing del19/T790M/C797S (EGFR-DTC), Celltiter glo; conditions: Mus musculus, BaF3, 72 h
Protocol: as §2, §1

| SMILES | GI50 [1] [nM] | GI50 [2] [nM] | GI50 [3] [nM] | GI50 [4] [nM] |
| --- | --- | --- | --- | --- |
| CC(=O)Nc1ccccc1Nc1nc(Nc2ccc(N3CCC(N4CCN(C)CC4)CC3)c(F)c2)ncc1Cl [Example 69, N-(2-((5-chloro-2-((3-fluoro-4-(4-(4-methylpiperazin-1-yl)piperidin-1-yl)phenyl)amino)pyrimidin-4-yl)amino)phenyl)acetamide] | 1 to 25 | 25 to 100 | 1 to 25 | 1 to 25 |
| COc1cc(N2CCC(N3CCN(C)CC3)CC2)c(C)cc1Nc1ncc(Cl)c(Nc2cc(Cl)c(Cl)cc2NC(C)=O)n1 [Example 71, N-(4,5-dichloro-2-((5-chloro-2-((2-methoxy-5-methyl-4-(4-(4-methylpiperazin-1-yl)piperidin-1-yl)phenyl)amino)pyrimidin-4-yl)amino)phenyl)acetamide] | 500 to 2000 | 100 to 500 | 100 to 500 | 100 to 500 |
| COc1nc(N2CCC(N3CCN(C)CC3)CC2)ccc1Nc1ncc(Cl)c(Nc2cc(Cl)c(Cl)cc2NC(C)=O)n1 [Example 72] | 2000 to 10000 | 500 to 2000 | 500 to 2000 | 500 to 2000 |
| CC(=O)Nc1cc(Cl)c(Cl)cc1Nc1nc(Nc2cnc(N3CCC(N4CCN(C)CC4)CC3)c(F)c2)ncc1Cl [Example 73, N-(4,5-dichloro-2-((5-chloro-2-((5-fluoro-6-(4-(4-methylpiperazin-1-yl)piperidin-1-yl)pyridin-3-yl)amino)pyrimidin-4-yl)amino)phenyl)acetamide] | 2000 to 10000 | 500 to 2000 | 500 to 2000 | 500 to 2000 |
| CC(=O)Nc1cc(Cl)c(Cl)cc1Nc1nc(Nc2ccc(N3CCOCC3)nc2)ncc1Cl [Example 74, N-(4,5-dichloro-2-((5-chloro-2-((6-morpholinopyridin-3-yl)amino)pyrimidin-4-yl)amino)phenyl)acetamide] | > 10000 | > 10000 | 2000 to 10000 | 2000 to 10000 |
| COc1cc(N2CCC(N3CCN(C)CC3)CC2)ccc1Nc1ncc(Cl)c(Nc2cc(Cl)c(Cl)cc2NC(C)=O)n1 [Example 75, N-(4,5-dichloro-2-((5-chloro-2-((2-methoxy-4-(4-(4-methylpiperazin-1-yl)piperidin-1-yl)phenyl)amino)pyrimidin-4-yl)amino)phenyl)acetamide] | 100 to 500 | 100 to 500 | 100 to 500 | 100 to 500 |
| CC(=O)Nc1cc(Cl)c(Cl)cc1Nc1nc(Nc2ccc(N3CCC(N4CCN(C)CC4)CC3)c(F)c2)ncc1Cl [Example 76, N-(4,5-dichloro-2-((5-chloro-2-((3-fluoro-4-(4-(4-methylpiperazin-1-yl)piperidin-1-yl)phenyl)amino)pyrimidin-4-yl)amino)phenyl)acetamide] | 100 to 500 | 100 to 500 | 100 to 500 | 100 to 500 |
| CC(=O)Nc1cc(Cl)c(Cl)cc1Nc1nc(Nc2ccc(N3CCC(N4CCN(C)CC4)CC3)cc2Cl)ncc1Cl [Example 77, N-(4,5-dichloro-2-((5-chloro-2-((2-chloro-4-(4-(4-methylpiperazin-1-yl)piperidin-1-yl)phenyl)amino)pyrimidin-4-yl)amino)phenyl)acetamide] | 500 to 2000 | 500 to 2000 | 500 to 2000 | 500 to 2000 |
| COc1cc(N2CCC(N3CCN(C)CC3)CC2)c(C)cc1Nc1ncc(Cl)c(N(C)c2cc(Cl)c(Cl)cc2N(C)C(C)=O)n1 [Example 78, N-(4,5-dichloro-2-((5-chloro-2-((2-methoxy-5-methyl-4-(4-(4-methylpiperazin-1-yl)piperidin-1-yl)phenyl)amino)pyrimidin-4-yl)(methyl)amino)phenyl)-N-methylacetamide] | 2000 to 10000 | 2000 to 10000 | 2000 to 10000 | 2000 to 10000 |
| COc1nc(N2CCC(N3CCN(C)CC3)CC2)ccc1Nc1ncc(Cl)c(N(C)c2cc(Cl)c(Cl)cc2N(C)C(C)=O)n1 [Example 79, N-(4,5-dichloro-2-((5-chloro-2-((2-methoxy-6-(4-(4-methylpiperazin-1-yl)piperidin-1-yl)pyridin-3-yl)amino)pyrimidin-4-yl)(methyl)amino)phenyl)-N-methylacetamide] | 500 to 2000 | 2000 to 10000 | 500 to 2000 | 500 to 2000 |
| COc1nc(N2CCC(N3CCN(C)CC3)CC2)ccc1Nc1ncc(Cl)c(Nc2cc(Cl)ccc2NS(C)(=O)=O)n1 [Example 81] | 500 to 2000 | 2000 to 10000 | 500 to 2000 | 500 to 2000 |
| COc1cc(N2CCC(N3CCN(C)CC3)CC2)ccc1Nc1ncc(Cl)c(Nc2cc(Cl)ccc2NS(C)(=O)=O)n1 [Example 82, N-(4-chloro-2-((5-chloro-2-((2-methoxy-4-(4-(4-methylpiperazin-1-yl)piperidin-1-yl)phenyl)amino)pyrimidin-4-yl)amino)phenyl)methanesulfonamide] | 500 to 2000 | 500 to 2000 | 100 to 500 | 100 to 500 |
| COc1nc(N2CCC(N3CCN(C)CC3)CC2)c(C)cc1Nc1ncc(Cl)c(Nc2cc(Cl)ccc2NS(C)(=O)=O)n1 [Example 83, N-(4-chloro-2-((5-chloro-2-((2-methoxy-5-methyl-6-(4-(4-methylpiperazin-1-yl)piperidin-1-yl)pyridin-3-yl)amino)pyrimidin-4-yl)amino)phenyl)methanesulfonamide] | 2000 to 10000 | 500 to 2000 | 100 to 500 | 100 to 500 |
| CN1CCN(C2CCN(c3ccc(Nc4ncc(Cl)c(Nc5cc(Cl)ccc5NS(C)(=O)=O)n4)cc3F)CC2)CC1 [Example 84, N-(4-chloro-2-((5-chloro-2-((3-fluoro-4-(4-(4-methylpiperazin-1-yl)piperidin-1-yl)phenyl)amino)pyrimidin-4-yl)amino)phenyl)methanesulfonamide] | 500 to 2000 | 100 to 500 | 100 to 500 | 100 to 500 |
| COc1cc(N2CCC(N3CCC(N(C)C)C3)CC2)c(C)cc1Nc1ncc(Br)c(Nc2cc(Cl)ccc2NS(C)(=O)=O)n1 (stereo not drawn) [Example 91, N-(2-((5-bromo-2-((4-(4-(3-(dimethylamino)pyrrolidin-1-yl)piperidin-1-yl)-2-methoxy-5-methylphenyl)amino)pyrimidin-4-yl)amino)-4-chlorophenyl)methanesulfonamide] | 2000 to 10000 | 100 to 500 | 25 to 100 | 1 to 25 |
| COc1cc(N2CCC(N3CCN(C)CC3)CC2)c(F)cc1Nc1ncc(Br)c(Nc2cc(Cl)ccc2NS(C)(=O)=O)n1 [Example 92, N-(2-((5-bromo-2-((5-fluoro-2-methoxy-4-(4-(4-methylpiperazin-1-yl)piperidin-1-yl)phenyl)amino)pyrimidin-4-yl)amino)-4-chlorophenyl)methanesulfonamide] | 2000 to 10000 | 100 to 500 | 25 to 100 | 1 to 25 |
| Cc1cc(Nc2ncc(Br)c(Nc3cc(Cl)ccc3NS(C)(=O)=O)n2)c(Cl)cc1N1CCC(N2CCN(C)CC2)CC1 [Example 93, N-(2-((5-bromo-2-((2-chloro-5-methyl-4-(4-(4-methylpiperazin-1-yl)piperidin-1-yl)phenyl)amino)pyrimidin-4-yl)amino)-4-chlorophenyl)methanesulfonamide] | 2000 to 10000 | 500 to 2000 | 25 to 100 | 1 to 25 |
| Cc1cc(Nc2ncc(Br)c(Nc3cc(Cl)ccc3NS(C)(=O)=O)n2)c(Cl)cc1N1CCC(N2CCC(N(C)C)C2)CC1 (stereo not drawn) [Example 96, N-(2-((5-bromo-2-((2-chloro-4-(4-(3-(dimethylamino)pyrrolidin-1-yl)piperidin-1-yl)-5-methylphenyl)amino)pyrimidin-4-yl)amino)-4-chlorophenyl)methanesulfonamide] | > 10000 | 500 to 2000 | 500 to 2000 | 500 to 2000 |
| COc1cc(N2CCC(N3CCN(C)CC3)CC2)c(C)cc1Nc1ncc(Cl)c(Nc2cc(Cl)c(Cl)cc2NS(C)(=O)=O)n1 [Example 99, N-(4,5-dichloro-2-((5-chloro-2-((2-methoxy-5-methyl-4-(4-(4-methylpiperazin-1-yl)piperidin-1-yl)phenyl)amino)pyrimidin-4-yl)amino)phenyl)methanesulfonamide] | > 10000 | 500 to 2000 | 25 to 100 | 25 to 100 |
| COc1nc(N2CCC(N3CCN(C)CC3)CC2)c(C)cc1Nc1ncc(Cl)c(Nc2cc(Cl)c(Cl)cc2NS(C)(=O)=O)n1 [Example 100] | 2000 to 10000 | 500 to 2000 | 100 to 500 | 100 to 500 |
| CN1CCN(C2CCN(c3ccc(Nc4ncc(Cl)c(Nc5cc(Cl)c(Cl)cc5NS(C)(=O)=O)n4)cc3F)CC2)CC1 [Example 101, N-(4,5-dichloro-2-((5-chloro-2-((3-fluoro-4-(4-(4-methylpiperazin-1-yl)piperidin-1-yl)phenyl)amino)pyrimidin-4-yl)amino)phenyl)methanesulfonamide] | 2000 to 10000 | 100 to 500 | 100 to 500 | 100 to 500 |
